From US7855211B2, “Protein kinase inhibitors” (Eli Lilly and Company, priority 2008, dated 2010)
Like-named read-outs stand apart in the source and are kept apart here. Values belong to the compound of their own block, whether it stands above or below them.

Tests used:
[1] = system: Calu-6 (lung) subcutaneous xenografts; test: Calu-6 (lung) subcutaneous xenograft, combination study with gemcitabine; format: in vivo, human; conditions: 60 mpk, IP, q3dx7
Procedure: (§1) Test compound is prepared in an appropriate vehicle (1% hydroxyethyl cellulose, in 25 mM phosphate buffer pH 2) and is administered by oral gavage daily (at 25, 50 or 100 mg/kg (mpk)) for 21 days when tumours are established (11-29 days after implant). Tumour response is determined by tumour volume measurement performed twice a week during the course of treatment.
(§2) The statistical method for assessing Tumour Growth Delay (TGD-Individual interpolation method) is as follows: For each animal, the time to reach a specified tumour volume (threshold) is calculated by interpolating between the last measurement before reaching the threshold and the next measurement. The interpolation is linear using log10(volume) vs. time. If an animal never reaches the threshold, its crossing time is reported at “>T” where T is the last day measured for that animal. These crossing times are analyzed as “time-to-event” data with right-censoring using a Weibull distribution. A mean and standard deviation are determined for each treatment group. Tumour growth delay (TGD) is the difference in mean crossing time between a treated group and the vehicle control group. T-tests are performed using the means and standard deviations from the Weibull analysis. Body weight is taken as a general measurement of toxicity.
Calu-6 (lung) subcutaneous xenografts are grown and measured as previously described. Gemcitabine was formulated in saline (0.9% sodium chloride in purified water) and administered via intraperitoneal injection q3dx7. Test compound was administered qdx21. A comparison of the single agent activity of gemcitabine with combination treatments containing both gemcitabine and the compound of Example 16 are shown in Table 10. Tumour growth is analyzed by 2-way interaction analysis.

[2] = system: human lung cancer cells (NCI H460); test: Human subcutaneous xenograft model, NCI H460, athymic nude mice; format: in vivo; conditions: oral gavage daily for 21 days
Procedure: as §1, §2

Solubility Assay = format: physicochemical; conditions: aqueous buffer, thermodynamic from solid; pH 8 phosphate buffer, ambient temperature, at least 16 hours, target 2.0 mg/mL
Procedure: The appropriate amounts of test compound are weighed into separate chromatographic vials. […] The vials are capped securely and placed in a rotation device. The vials are rotated through 360° for at least 16 hours at ambient temperature with an angular speed of about 50 rpm. A visual examination of the individual vials is performed after rotation. 250 μL from each vial is filtered through a 0.7 μm glass filter. The sample filtrate and standard filtrate are collected into separate wells of 96 deep well plates. […] The sample and standard solutions are analysed by HPLC (LC Column: […] A—0.2% Formic Acid in Water; B—0.2% Formic Acid in acetonitrile; […] Diode array detector scan from 200 nm to 400 nm. The wavelength extracted and used for quantitation is selected to provide the most accurate estimation of the sample preparations.) Retention time used for peak assignment for the test compound is obtained from the 200 μg/mL standard preparation chromatogram. Solubility values are calculated using a four-level calibration curve. The line of best fit for peak area of calibration standards calculated by chromatographic management data system using linear or quadratic through zero fit is used. Solubility results are reported in mg/mL. Preferred exemplified compounds display a solubility of at least 2 mg/ml in pH 8 phosphate buffer using the above assay.

[3] = system: U87 MG human glioblastoma tumour cells; test: Orthotopic Brain Xenograft Model, NIH-RNU rats, survival; format: in vivo
Excerpt: Test compound is formulated in vehicle (1% w/v hydroxyethylcellulose/0.25% v/v polysorbate 80/0.05% v/v antifoam in purified water) and administered every day for 21 days at 20, 40 and 80 mpk (qdx21) and 80 mpk q2dx10 starting on day 4 after tumour implant.
The primary outcome variable is survival.

[4] = Plasma and brain exposure in non-tumour bearing male Sprague Dawley rats; format: in vivo, rat; conditions: male SD rats; for concentration at 2 h / concentration at 4 h / concentration at 24 h / concentration at 48 h: single oral dose 30 mg/kg
Procedure: Samples are taken over 48 h in order to determine plasma and brain concentrations. Animals are sacrificed, and whole blood collected by cardiac puncture and plasma isolated by centrifugation. Whole brain is collected and snapped frozen in liquid nitrogen. […] An internal standard compound in acetonitrile/methanol (1:1, v/v) is added to samples of plasma or brain homogenate to precipitate protein and the samples are centrifuged prior to analysis. The supernatants are analysed by injection and rapid gradient elution on a Javelin Betasil C18 column (20×2.1 mm cartridge, Mobile phase A: […] The eluted analytes are detected by LC-MS-MS analysis using a Sciex API 4000 triple quadrupole mass spectrometer. Concentrations of compounds in plasma or brain are determined from standards prepared under identical conditions. The plasma and brain concentrations are determined in this study from a group of three rats at each time point (see Tables 6a and 6b) and are used to calculate the area under the plasma concentration/time curve or the brain concentration/time curve from 0 to 48 hours. […] Maximal concentrations (Tmax) are detected at 4 h.

[5] = system: human acute myeloid leukaemia (AML) cells (MV4-11); test: Human subcutaneous xenograft model, MV4-11, athymic nude mice; format: in vivo; conditions: for TGD Days (750 m3): oral gavage daily for 21 days
Procedure: as §1, §2

[6] = system: human glioblastoma cells (U87MG); test: Human subcutaneous xenograft model, U87MG, athymic nude mice; format: in vivo; conditions: U87 MG, oral gavage daily for 21 days
Procedure: as §1, §2

[7] = system: Human colorectal cancer cells (colo-205); test: Human subcutaneous xenograft model, colo-205, athymic nude mice; format: in vivo; conditions: oral gavage daily for 21 days
Procedure: as §1, §2

CDK6 = target: T1, CDK6 (Homo sapiens, UniProt Q00534); test: CDK6 Inhibition Assay; format: biochemical; conditions: CDK6 kinase, 33P-ATP, CTRF substrate
T1 construct: purchased Proqinase 7533
T1 sequence (Q00534 whole entry): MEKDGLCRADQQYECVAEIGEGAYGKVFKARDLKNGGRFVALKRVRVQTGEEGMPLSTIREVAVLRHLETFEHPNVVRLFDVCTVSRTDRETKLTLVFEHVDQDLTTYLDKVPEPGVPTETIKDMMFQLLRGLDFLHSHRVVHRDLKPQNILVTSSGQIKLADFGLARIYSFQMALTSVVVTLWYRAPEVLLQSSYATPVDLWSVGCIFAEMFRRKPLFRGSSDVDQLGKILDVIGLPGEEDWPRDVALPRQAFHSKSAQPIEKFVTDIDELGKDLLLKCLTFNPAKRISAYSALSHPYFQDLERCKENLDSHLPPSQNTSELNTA
T1 sequence (P24385 whole entry partner): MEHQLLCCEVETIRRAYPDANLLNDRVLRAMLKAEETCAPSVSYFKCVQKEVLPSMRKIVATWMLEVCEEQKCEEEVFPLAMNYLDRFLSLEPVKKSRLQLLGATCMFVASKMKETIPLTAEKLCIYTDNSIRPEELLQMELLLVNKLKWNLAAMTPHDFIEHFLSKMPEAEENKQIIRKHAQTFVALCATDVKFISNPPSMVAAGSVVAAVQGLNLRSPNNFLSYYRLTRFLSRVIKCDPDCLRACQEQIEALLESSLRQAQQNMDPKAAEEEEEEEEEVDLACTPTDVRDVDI
Procedure: 10 μL of test compound in 20% DMSO, 20 μL of ATP and CTRF (Upstate cat # 12-439) solution, and 10 μL of enzyme solution are mixed in a 96 well plate. The ATP and CRTF solution is prepared to give a final concentration of 100 μM ATP, 0.5 μCi [^33P]-ATP and 0.8 μM CTRF diluted in kinase buffer of 68 mM HEPES pH 7.4, 6.72 mM MgCl2, 2.64 mM DTT, and 0.004% TRITON™ X-100. The enzyme solution is prepared for a final concentration of 1.7 ng/μL CDK6 enzyme (Proqinase cat # 7533) diluted in the kinase buffer described above in the CDK4 inhibition assay. Test compounds are serially diluted 1:3 in 20% DMSO to create a 10 point curve at a starting concentration of 20 μM. 20% DMSO buffer alone without added test compound is employed as a control, 500 mM EDTA is used to determine the level of background ^33P in the absence of enzyme activity. Reagents are mixed and incubated for 90 min at 20° C. The reaction is terminated by the addition of 80 μL 10% (v/v) H3PO4 and precipitation of material onto glass fiber filter plates (Millipore, MAFC N0B 50). The wells are washed four times with 0.5% H3PO4 and the radioactivity incorporated is determined with a microplate scintillation counter (Microbeta Trilux, Wallac).
The data is analyzed in the same manner as for CDK4. Preferred exemplified compounds display an IC50 of <30 nM in the above assay. […]

[8] = system: U87 MG subcutaneous xenografts; test: U87 MG subcutaneous xenograft, combination study with temozolomide; format: in vivo, human; conditions: 3 mpk, IP, q7dx2
Procedure: as §1, §2
U87 MG subcutaneous xenografts are grown and measured as previously described. The compound of Example 16 is formulated and administered as previously described and dosed orally once a day from days 11-31. Temozolomide (Schering Corporation) is formulated in 1% w/v hydroxyethylcellulose/0.25% v/v polysorbate 80 in purified water and administered by interperitoneal injection on days 11 and 18. A comparison of the single agent activity of temozolomide with a combination treatment with the compound of Example 16 is shown in Table 7. Tumor growth is analyzed by 2-way interaction analysis; log-transformed tumor volumes were analyzed with a repeated measures analysis of variance (ANOVA) using a spatial power correlation model in SAS, version 9.1 (Cary, N.C.). […]

[9] = system: U87 MG orthotopic brain xenografts; test: U87 MG orthotopic brain xenograft, combination study with temozolomide; conditions: TMZ IP 3 mg/kg (days 6 and 13)
Procedure: In vivo brain tumour model: Male NIH-RNU rats weighing between 225 and 300 g are anesthetized with isoflurane and placed into a stereotaxic frame (David Kopf Instruments, Tujunga, Calif.). A mid-line incision is made and a 1 mm burr hole drilled 2 mm lateral from the midline and 3 mm anterior to the coronal suture. A cell suspension of 5×10^5 U87 MG human glioblastoma tumour cells (grown in Eagle's MEM with Earle Salts, L-glutamine and non essential amino acids, 1 mM Na pyruvate and 10% FBS) in 10 μL (5×10^5 cells for qd dosing and 1×10^6 for q2d dosing) is injected at a depth of 3 mm by means of a 25 or 50 μl Hamilton syringe over a period of approximately 2 min using a stereotaxic-mounted syringe pump (Nano-Injector, model #53310 and Stereotaxic Adapter Clamp, part #51681, Stoelting Co, Wood Dale, Ill.) with the syringe left in place for an additional 1 min to prevent backflow and the syringe is slowly withdrawn. […]
The primary outcome variable is survival. Animals are monitored daily until death and, in consultation with the veterinary staff and in adherence with the policy on tumour implantation, euthanized if the animal becomes moribund. […] Survival data are analyzed by the Kaplan-Meier method for median survival analysis using JMP ν6.0.2 (SAS Institute).

[10] = Sprague Dawley, rat, brain, read-out: Brain concentration (Mean)
[11] = Sprague Dawley, rat, plasma, read-out: Plasma concentration (Mean)

SMILES: Cl.Nc1ccn([C@@H]2O[C@H](CO)[C@@H](O)C2(F)F)c(=O)n1 (single isomer, unassigned) [Gemcitabine, 2′-deoxy-2′,2′-difluorocytidine monohydrochloride (β-isomer)]
Dead/total animals [1]: 0/7
Maximum body weight loss (%) [1]: −12%
Tumor volume (mg) at end of dosing period (day 38) [1]: 509.18 mg

SMILES: CCN1CCN(Cc2ccc(Nc3ncc(F)c(-c4cc(F)c5nc(C)n(C(C)C)c5c4)n3)nc2)CC1.CS(=O)(=O)O [Example 16, [5-(4-Ethyl-piperazin-1-ylmethyl)-pyridin-2-yl]-[5-fluoro-4-(7-fluoro-3-isopropyl-2-methyl-3H-benzoimidazol-5-yl)-pyrimidin-2-yl]-amine methanesulfonate]
TGD Days (750 m3) ([2]; H460, 25 mpk): 1.5 days
TGD Days (750 m3) ([2]; H460, 50 mpk): 4.0 days
TGD Days (750 m3) ([2]; H460, 100 mpk): 6.7 days
solubility (Solubility Assay): 2100 µg/mL
median survival compared to vehicle treated animals ([3]; 40 mpk qd, 80 mpk qd and 80 mpk q2d): statistically significant increase in median survival
Mean Survival ([3]; PO 20 mg/kg qd): 29.8 days
Median Survival ([3]; PO 20 mg/kg qd): 31 days
Mean Survival ([3]; PO 40 mg/kg qd): 34.3 days
Median Survival ([3]; PO 40 mg/kg qd): 37 days
Mean Survival ([3]; PO 80 mg/kg q2d): 33.0 days
Median Survival ([3]; PO 80 mg/kg q2d): 34 days
Mean Survival ([3]; PO 80 mg/kg qd): 36.9 days
Median Survival ([3]; PO 80 mg/kg qd): 37 days
concentration at 2 h [4, 10]: 758 ng/g
concentration at 4 h [4, 10]: 1500 ng/g
concentration at 24 h [4, 10]: 992 ng/g
concentration at 48 h [4, 10]: 718 ng/g
Cmax ([4]; Sprague Dawley, rat, plasma, 30 mg/kg oral): 1500 ng/mL
concentration at 2 h [4, 11]: 1010 ng/mL
concentration at 4 h [4, 11]: 1500 ng/mL
concentration at 24 h [4, 11]: 1020 ng/mL
concentration at 48 h [4, 11]: 972 ng/mL
Tmax ([4]; Sprague Dawley, rat, 30 mg/kg oral, plasma and brain, read-out: Maximal concentrations (Tmax)): 4 h
Cmax Brain ([4]; 30 mg/kg oral): 1500 ng/g
Tmax Brain ([4]; 30 mg/kg oral): 4.00 h
Tmax Plasma ([4]; 30 mg/kg oral): 4.00 h
blood-brain barrier penetration ([4]; 30 mg/kg oral): able to cross the blood-brain barrier and distributes well into the brain
AUC Brain ([4]; 30 mg/kg oral, 0-48 Hours): 47900 ng·h/g
AUC Plasma ([4]; 30 mg/kg oral, 0-48 Hours): 52300 ng·h/mL
Kp ([4]; male, Sprague Dawley, rat, brain/plasma, po, 30 mg/kg, 30 mg/kg oral, 0-48 Hours, read-out: AUC Brain/Plasma Ratio): 0.92
Kp ([4]; male, Sprague Dawley, rat, brain/plasma, po, 30 mg/kg, 30 mg/kg oral, by AUC or Cmax, read-out: brain/plasma ratio): ~1
Kp at 4 h ([4]; male, Sprague Dawley, rat, brain/plasma, po, 30 mg/kg, 30 mg/kg oral, read-out: Cmax Brain/Plasma Ratio): 1
tumour response ([5]; AML MV4-11 xenografts, 100 mg per Kg (mpk)): tumour regression is observed
TGD Days (750 m3) ([5]; MV4-11, 25 mpk): 10.4 days
TGD Days (750 m3) ([5]; MV4-11, 50 mpk): 11.5 days
Tumor volume (mg) at start of dosing period (day 28) ([5]; MV4-11, 100 mpk, PO, qdx21, day 28): 225.94 mg
Tumor volume (mg) at end of dosing period (day 49) ([5]; MV4-11, 100 mpk, PO, qdx21, day 49): 116.68 mg
TGD Days (750 m3) ([5]; MV4-11, 100 mpk): 28.8 days
TGD Days (750 m3) ([6]; 25 mpk): 6.1 days
TGD Days (750 m3) ([6]; 50 mpk): 10.0 days
TGD Days (750 m3) ([6]; 100 mpk): 21.4 days
TGD Days (750 m3) ([7]; colo-205, 25 mpk): 15.3 days
TGD Days (750 m3) ([7]; colo-205, 50 mpk): 17.4 days
TGD Days (750 m3) ([7]; colo-205, 100 mpk): 39.9 days

IC50 (CDK6): 5 nM
SMILES: Cc1nc2c(F)cc(-c3nc(Nc4ccc(CN5CCN(C(C)C)CC5)cn4)ncc3F)cc2n1C(C)C [Example 19, [5-Fluoro-4-(7-fluoro-3-isopropyl-2-methyl-3H-benzoimidazol-5-yl)-pyrimidin-2-yl]-[5-(4-isopropyl-piperazin-1-ylmethyl)-pyridin-2-yl]-amine methanesulfonate]

SMILES: Cn1nnc2c(C(N)=O)ncn2c1=O [Temozolomide]
Dead/total animals [8]: 0/8
Maximum body weight loss (%) [8]: −1%
Tumor volume (mg) at end of dosing period (day 31) [8]: 101.88 mg
Mean Survival [9]: 46.9 days
Median Survival [9]: 47 days
